{"source": "patent US8959984B2", "about": "“Proteome-wide quantification of small molecule binding to cellular target proteins” (priority 2007, dated 2015)", "key": {"PHKg2": {"molecular_target": "T1, PHKg2 (Homo sapiens, UniProt P15735)", "T1 construct": "endogenous in cells; host or cells: HeLa S3", "T1 sequence (P15735 1-406)": "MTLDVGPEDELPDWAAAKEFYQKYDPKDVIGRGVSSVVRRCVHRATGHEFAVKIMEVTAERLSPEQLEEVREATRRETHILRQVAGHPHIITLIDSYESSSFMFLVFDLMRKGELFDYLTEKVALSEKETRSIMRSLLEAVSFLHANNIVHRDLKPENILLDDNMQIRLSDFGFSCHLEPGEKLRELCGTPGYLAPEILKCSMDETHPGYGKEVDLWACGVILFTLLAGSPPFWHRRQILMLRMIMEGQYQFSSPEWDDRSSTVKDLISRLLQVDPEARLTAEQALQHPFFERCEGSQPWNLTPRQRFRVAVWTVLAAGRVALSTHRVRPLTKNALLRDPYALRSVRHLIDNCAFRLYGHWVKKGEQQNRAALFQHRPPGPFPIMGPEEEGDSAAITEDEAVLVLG", "experiment": "binding to immobilized V16742 (IVA1/IVA2, HeLa lysate, MS)"}, "MASTL": {"molecular_target": "T2, MASTL (Homo sapiens, UniProt Q96GX5)", "T2 construct": "endogenous in cells; host or cells: HeLa S3", "T2 sequence (Q96GX5 1-879)": "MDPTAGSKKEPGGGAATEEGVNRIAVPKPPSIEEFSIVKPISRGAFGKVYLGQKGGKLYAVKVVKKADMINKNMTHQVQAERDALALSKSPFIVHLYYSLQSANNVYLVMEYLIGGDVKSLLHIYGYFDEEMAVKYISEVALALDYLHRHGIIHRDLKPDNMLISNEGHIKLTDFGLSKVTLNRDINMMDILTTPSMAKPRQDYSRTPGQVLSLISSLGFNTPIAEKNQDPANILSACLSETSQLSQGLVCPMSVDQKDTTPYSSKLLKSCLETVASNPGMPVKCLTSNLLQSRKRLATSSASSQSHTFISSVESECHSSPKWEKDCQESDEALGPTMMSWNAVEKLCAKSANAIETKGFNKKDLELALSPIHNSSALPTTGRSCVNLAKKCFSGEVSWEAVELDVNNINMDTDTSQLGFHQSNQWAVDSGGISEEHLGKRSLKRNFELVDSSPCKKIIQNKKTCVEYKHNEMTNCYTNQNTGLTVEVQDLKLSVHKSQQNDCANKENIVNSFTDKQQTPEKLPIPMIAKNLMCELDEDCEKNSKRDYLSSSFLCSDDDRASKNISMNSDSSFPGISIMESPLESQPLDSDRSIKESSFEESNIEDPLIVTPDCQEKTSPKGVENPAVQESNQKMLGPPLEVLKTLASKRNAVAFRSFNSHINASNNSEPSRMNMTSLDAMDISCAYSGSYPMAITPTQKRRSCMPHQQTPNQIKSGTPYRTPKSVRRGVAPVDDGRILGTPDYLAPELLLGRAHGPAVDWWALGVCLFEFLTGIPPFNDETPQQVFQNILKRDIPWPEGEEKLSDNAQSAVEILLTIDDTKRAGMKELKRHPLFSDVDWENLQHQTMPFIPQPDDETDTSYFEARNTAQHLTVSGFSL", "experiment": "binding to immobilized V16742 (IVA1/IVA2, HeLa lysate, MS)"}, "ALK2 (ACVR1)": {"molecular_target": "T3, ALK2 (ACVR1) (Homo sapiens, UniProt Q04771)", "T3 sequence (Q04771 21-509)": "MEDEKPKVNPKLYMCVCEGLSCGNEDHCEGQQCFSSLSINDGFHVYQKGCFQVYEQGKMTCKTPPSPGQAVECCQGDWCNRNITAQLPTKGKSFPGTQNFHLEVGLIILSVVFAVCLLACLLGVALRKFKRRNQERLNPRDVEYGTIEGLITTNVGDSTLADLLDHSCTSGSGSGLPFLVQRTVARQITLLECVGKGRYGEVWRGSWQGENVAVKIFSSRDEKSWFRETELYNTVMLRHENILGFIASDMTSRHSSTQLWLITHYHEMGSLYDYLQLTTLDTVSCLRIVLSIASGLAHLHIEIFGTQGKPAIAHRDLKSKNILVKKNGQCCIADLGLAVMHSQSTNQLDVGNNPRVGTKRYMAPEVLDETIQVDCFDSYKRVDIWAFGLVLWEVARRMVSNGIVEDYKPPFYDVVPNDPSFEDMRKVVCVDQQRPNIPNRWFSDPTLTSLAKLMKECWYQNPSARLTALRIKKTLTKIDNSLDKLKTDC"}}, "data": [{"smiles": "CC(C)n1c(=O)ccc2cnc(Nc3ccc(OCCN)cc3)nc21", "note": "[V16742]", "values": [{"measurement": "Percent bound at various 16742 conc", "setting": "PHKg2; Experiment 1, 52 μM 16742", "result": 59.42, "unit": "%"}, {"measurement": "Kd", "setting": "PHKg2; Experiment 2", "result": 146, "unit": "µM"}, {"measurement": "Percent bound at various 16742 conc", "setting": "PHKg2; Experiment 2, 1.87 μM 16742", "result": 1.94, "unit": "%"}, {"measurement": "Percent bound at various 16742 conc", "setting": "PHKg2; Experiment 2, 8.74 μM 16742", "result": 2.29, "unit": "%"}, {"measurement": "Percent bound at various 16742 conc", "setting": "PHKg2; Experiment 2, 52 μM 16742", "result": 27.11, "unit": "%"}, {"measurement": "Percent bound at various 16742 conc", "setting": "MASTL; Experiment 1, 1.87 μM 16742", "result": 0.55, "unit": "%"}, {"measurement": "Percent bound at various 16742 conc", "setting": "MASTL; Experiment 1, 8.74 μM 16742", "result": 9.59, "unit": "%"}, {"measurement": "Percent bound at various 16742 conc", "setting": "MASTL; Experiment 1, 52 μM 16742", "result": 51.63, "unit": "%"}, {"measurement": "Percent bound at various 16742 conc", "setting": "MASTL; Experiment 2, 52 μM 16742", "result": 62.29, "unit": "%"}, {"measurement": "Kd", "setting": "MASTL; single Kd value, obtained from only one experiment", "result": 53.8, "unit": "µM"}]}, {"smiles": "COc1cc2ncnc(Nc3ccc(F)c(Cl)c3)c2cc1OCCCN1CCOCC1", "note": "[gefitinib]", "values": [{"measurement": "rAVERAGE (10 nM/0 nM Gef.)", "setting": "ALK2 (ACVR1)", "result": 0.76}, {"measurement": "rAVERAGE (100 nM/0 nM Gef.)", "setting": "ALK2 (ACVR1)", "result": 1.25}, {"measurement": "rAVERAGE (1000 nM/0 nM Gef.)", "setting": "ALK2 (ACVR1)", "result": 0.77}, {"measurement": "rAVERAGE (10000 nM/0 nM Gef.)", "setting": "ALK2 (ACVR1)", "result": 0.85}]}]}
